The format of data set [1] is in vitro ADME, hairless guinea pig. As to the method: Aliquots (100 μg) of peptide were incubated at 37° C. with skin extract (1 mL) over the indicated periods of time. The remaining peptide was separated and quantified by HPLC. The data represent averages of duplicate experiments;
The incubation of peptides (PTH(1-34), left panel and PTH(1-34) amide, right panel) with skin extracts, over the indicated times, was conducted as described in Example 2. Fractions containing the peaks were collected, lyophilized and the masses were determined by MALDI-TOF.
Hairless guinea pig skin extracts (1 mL aliquots) were prepared from samples of plasma and skin extracts, respectively, and stored at about −20° C. Stock solutions of hPTH(1-34), hPTH(1-34)NH2, hPTH (1-34)NH-propyl, and hPTH (1-34)NH-phenylpropyl were prepared in HPLC-grade water to achieve a concentration of 10 mg of peptide/mL. Aliquots of skin extracts (1 ml) were incubated at 37° C. for 10 minutes prior to the addition of peptide (100 μg; 10 μL stock solution) or water (10 μL) (control). […]
The lyophilized samples were resuspended in 200 μL of 0.1 N acetic acid and centrifuged at 13,000 g for 15 minutes at room temperature. […] Fractions containing the metabolites of PTH derivatives were collected, concentrated by lyophilization and their masses determined by MALDI-TOF MS (using Voyager-DE Perseptive Biosystems according to the manufacture's procedure).

The conditions of data set [2]: in vivo; cited from earlier work.

Take hPTH(1-34) [PTH (1-34)]: the “site of degradation by skin proteases” value in data set [1] was “takes place at the carboxyterminal end”. In the case of PTH (1-31), in data set [2], the “potency in anabolic actions on the bone relative to PTH(1-34)” value is given as “as potent as PTH(1-34)” and the “stimulation of resorption markers” value is recorded as “without stimulating resorption markers”.

The values are drawn from patent publication US20040023882A1, “PTH derivatives resistant to skin proteases” (priority 2002, published 2004).
